Values of other authors as cited in paper PMC2660605 (Biochemistry, 2008).

What was measured:
[1] = system: HIV-1 with IN mutation E92Q
[2] = system: HIV-1 with IN mutation T66I
[3] = molecular target: HIV-1 integrase E92Q (Human immunodeficiency virus type 1 group M subtype B, UniProt P12497, E1239Q); conditions: E92Q mutant

For COc1cc2c(cc1Cc1cccc(Cl)c1F)c(=O)c(C(=O)O)cn2[C@H](CO)C(C)C [Elvitegravir, elvitegravir], the reduced susceptibility [1] is listed as 36 fold, the reduced susceptibility [2] is listed as 37 fold and the resistance level [3] is listed as 4.3 fold.
